The text below walks through data of patent US20240043435A1, “TYK-2 INHIBITOR” (BEIGENE, LTD., priority 2020, published 2024).

Bounds are passed on as bounds.

Experiment [1] deals with T1, TYK2-JH2 (aa 575-869, in-house) protein (Homo sapiens, UniProt P29597).
T1 construct: TYK2-JH2 (aa 575-869, in-house) protein; made in house
Put plainly: TYK2-JH2 biochemical assay (HTRF probe displacement). The note with it: Biochemical assay; read-out: TYK2-JH2 IC50. The class given is binding. The procedure, abridged: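 Recombinant TYK2-JH2 (0.2 nM) was pre-incubated 0.5 h at room temperature with compounds (10 doses, 5-fold dilution; 500× DMSO stocks from 500 uM) in 20 mM HEPES pH 7.5, 10 mM MgCl2, 0.005% BSA, 2 mM DTT, 0.015% Brij-35. Probe displacement was read by HTRF (ex337, em620/665 nm); IC50 from four-parameter logistic fit.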
In general terms: In TR-FRET formats the signal depends on donor and acceptor labels being close together.

Experiment [2] concerns pSTAT5/GM-CSF. Put plainly: pSTAT5/GM-CSF cellular assay (JAK2 selectivity). The class given is cell-based. The settings on record: for Selectivity fold (TYK2/JAK2): pSTAT5/GM-CSF IC50 over pSTAT4/IL-12 IC50.
In experiment [3] the test system is JAK2, TYK2/p-STAT4 (Tyr693) activated by IL-12 in NK-92 cell line. Put plainly: IL-12-JAK2, TYK2/p-STAT4 (Tyr693) inhibition IC50 cellular assay. The class given is cell-based. The settings on record: NK92, Cellular assay; read-out: pSTAT4/IL-12 IC50. The procedure, abridged: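 NK-92 cells were starved overnight without IL-2 and preincubated 1 h at 37° C with compound (8 doses, 10000–0.61 nM, 4-fold, 0.2% DMSO). They were then stimulated with IL-12 (40 ng/ml final) for 30 min. Lysate p-STAT4 (Tyr693) was read by AlphaLISA SureFire; IC50 from four-parameter logistic fit.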

T1 sequence (P29597 575-869): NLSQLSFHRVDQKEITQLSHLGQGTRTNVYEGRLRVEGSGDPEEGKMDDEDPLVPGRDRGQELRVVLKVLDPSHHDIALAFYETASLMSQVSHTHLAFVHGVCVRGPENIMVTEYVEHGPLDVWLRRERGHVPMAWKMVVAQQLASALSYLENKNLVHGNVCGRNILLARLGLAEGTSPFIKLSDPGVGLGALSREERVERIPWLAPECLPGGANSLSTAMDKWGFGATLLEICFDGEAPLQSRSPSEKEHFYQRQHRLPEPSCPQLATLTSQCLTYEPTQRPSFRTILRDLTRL

Take `CC(=O)Nc1cc(Nc2cc(OCC(O)CO)cc(S(C)(=O)=O)n2)c(-c2ccn(C)n2)cn1` (centres unmarked) [Example J48, N-(4-((4-(2,3-dihydroxypropoxy)-6-(methylsulfonyl)pyridin-2-yl)amino)-5-(1-methyl-1H-pyrazol-3-yl)pyridin-2-yl)acetamide]: the results for the IC50 in experiment [1], in experiment [2] and in experiment [3] were 0.035 nM, greater than 10000 nM and 70.2 nM, respectively. Also, in experiment [2], the “Selectivity fold (TYK2/JAK2)” value is greater than 1421411 fold.

For the compound `COc1ccc(Nc2cc(NC(C)=O)ncc2-c2ccn(C)n2)nc1S(C)(=O)=O` [Example J50, N-(4-((5-methoxy-6-(methylsulfonyl)pyridin-2-yl)amino)-5-(1-methyl-1H-pyrazol-3-yl)pyridin-2-yl)acetamide], the IC50 in experiment [1] was 0.049 nM; in experiment [2] it was greater than 10000 nM; in experiment [3], 27.7 nM. The “Selectivity fold (TYK2/JAK2)” value in experiment [2] is given as greater than 361 fold.

Turning to `CC(=O)Nc1cc(Nc2ccc(C)c(S(C)(=O)=O)n2)c(-c2ccn(C)n2)cn1` [Example J51, N-(5-(1-methyl-1H-pyrazol-3-yl)-4-((5-methyl-6-(methylsulfonyl)pyridin-2-yl)amino)pyridin-2-yl)acetamide], the IC50 in experiment [1] was 0.043 nM; in experiment [2] it was greater than 10000 nM; in experiment [3], 1.58 nM. Besides, the “Selectivity fold (TYK2/JAK2)” value in experiment [2] is recorded as greater than 6329 fold.

`CC(=O)Nc1cc(Nc2cc(C(F)(F)F)cc(S(C)(=O)=O)n2)c(-c2ccn(C)n2)cn1` [Example J52, N-(5-(1-methyl-1H-pyrazol-3-yl)-4-((6-(methylsulfonyl)-4-(trifluoromethyl)pyridin-2-yl)amino)pyridin-2-yl)acetamide]: the IC50 was 0.021 nM in experiment [1], greater than 10000 nM in experiment [2] and 1.43 nM in experiment [3]. For the same compound, in experiment [2], the “Selectivity fold (TYK2/JAK2)” value is given as greater than 699 fold.

For the compound `CCS(=O)(=O)c1cc(OC(C)C)cc(Nc2cc(NC(C)=O)ncc2-c2ccn(C)n2)n1` [Example J53, N-(4-((6-(ethylsulfonyl)-4-isopropoxypyridin-2-yl)amino)-5-(1-methyl-1H-pyrazol-3-yl)pyridin-2-yl)acetamide], the IC50 is 0.033 nM in experiment [1], greater than 10000 nM in experiment [2] and 3.47 nM in experiment [3]. Moreover, the “Selectivity fold (TYK2/JAK2)” value in experiment [2] was greater than 2881 fold.

Take `CC(=O)Nc1cc(Nc2ccc(F)c(S(C)(=O)=O)n2)c(-c2ccn(C)n2)cn1` [Example J54, N-(4-((5-fluoro-6-(methylsulfonyl)pyridin-2-yl)amino)-5-(1-methyl-1H-pyrazol-3-yl)pyridin-2-yl)acetamide]: the IC50 in experiment [1] is 0.028 nM; in experiment [2], greater than 10000 nM; in experiment [3], 2.03 nM. Moreover, the “Selectivity fold (TYK2/JAK2)” value in experiment [2] was greater than 4926 fold.

Turning to `CC(=O)Nc1cc(Nc2cc(OC[C@H](C)O)cc(S(C)(=O)=O)c2)c(-c2ccn(C)n2)cn1` [Example J55, (S)-N-(4-((3-(2-hydroxypropoxy)-5-(methylsulfonyl)phenyl)amino)-5-(1-methyl-1H-pyrazol-3-yl)pyridin-2-yl)acetamide], the IC50 is 0.033 nM in experiment [1], greater than 10000 nM in experiment [2] and 11.4 nM in experiment [3]. The “Selectivity fold (TYK2/JAK2)” value in experiment [2] was greater than 878 fold.

In the case of `CC(=O)Nc1cc(Nc2cc(OCCO)cc(S(C)(=O)=O)c2)c(-c2ccn(C)n2)cn1` [Example J56, N-(4-((3-(2-hydroxyethoxy)-5-(methylsulfonyl)phenyl)amino)-5-(1-methyl-1H-pyrazol-3-yl)pyridin-2-yl)acetamide], the IC50 in experiment [1] was 0.044 nM; in experiment [2] it was greater than 10000 nM; in experiment [3], 30.1 nM. The “Selectivity fold (TYK2/JAK2)” value in experiment [2] is on record as greater than 332 fold.

Regarding `CC(=O)Nc1cc(Nc2cc(OC[C@@H](C)O)cc(S(C)(=O)=O)c2)c(-c2ccn(C)n2)cn1` [Example J57, (R)-N-(4-((3-(2-hydroxypropoxy)-5-(methylsulfonyl)phenyl)amino)-5-(1-methyl-1H-pyrazol-3-yl)pyridin-2-yl)acetamide], the IC50 in experiment [1] is 0.045 nM; in experiment [2] it was greater than 10000 nM; in experiment [3] it was 15.3 nM. Moreover, in experiment [2], the “Selectivity fold (TYK2/JAK2)” value is greater than 653 fold.

For `CC(=O)Nc1cc(Nc2cc(OC(F)F)cc(S(C)(=O)=O)n2)c(-c2ccn(C)n2)cn1` [Example J58, N-(4-((4-(difluoromethoxy)-6-(methylsulfonyl)pyridin-2-yl)amino)-5-(1-methyl-1H-pyrazol-3-yl)pyridin-2-yl)acetamide], the values for the IC50 in experiment [1], in experiment [2] and in experiment [3] were 0.025 nM, greater than 10000 nM and 0.497 nM, respectively. Also, the “Selectivity fold (TYK2/JAK2)” value in experiment [2] is given as greater than 20120 fold.

In the case of `CC(=O)Nc1cc(Nc2cc(OCC(C)C)cc(S(C)(=O)=O)n2)c(-c2ccn(C)n2)cn1` [Example J59, N-(4-((4-isobutoxy-6-(methylsulfonyl)pyridin-2-yl)amino)-5-(1-methyl-1H-pyrazol-3-yl)pyridin-2-yl)acetamide], the IC50 is 0.029 nM in experiment [1], greater than 10000 nM in experiment [2] and 1.31 nM in experiment [3]. In experiment [2], the “Selectivity fold (TYK2/JAK2)” value is listed as greater than 7633 fold.

Consider `CC[C@H](C)Oc1cc(Nc2cc(NC(C)=O)ncc2-c2ccn(C)n2)nc(S(C)(=O)=O)c1` [Example J60, (S)-N-(4-((4-(sec-butoxy)-6-(methylsulfonyl)pyridin-2-yl)amino)-5-(1-methyl-1H-pyrazol-3-yl)pyridin-2-yl)acetamide], for which the IC50 in experiment [1] was 0.021 nM; in experiment [2] it was greater than 10000 nM; in experiment [3] it was 0.797 nM. In addition, in experiment [2], the “Selectivity fold (TYK2/JAK2)” value is on record as greater than 12547 fold.

`CC(=O)Nc1cc(Nc2cc(C3CCOCC3)cc(S(C)(=O)=O)n2)c(-c2ccn(C)n2)cn1` [Example J61, N-(5-(1-methyl-1H-pyrazol-3-yl)-4-((6-(methylsulfonyl)-4-(tetrahydro-2H-pyran-4-yl)pyridin-2-yl)amino)pyridin-2-yl)acetamide]: the values for the IC50 in experiment [1], in experiment [2] and in experiment [3] were 0.019 nM, greater than 10000 nM and 1.42 nM, respectively. Moreover, in experiment [2], the “Selectivity fold (TYK2/JAK2)” value is greater than 7042 fold.

With `CC(=O)Nc1cc(Nc2cc(OC(F)F)cc(S(C)(=O)=O)c2)c(-c2ccn(C)n2)cn1` [Example J62, N-(4-((3-(difluoromethoxy)-5-(methylsulfonyl)phenyl)amino)-5-(1-methyl-1H-pyrazol-3-yl)pyridin-2-yl)acetamide], the values for the IC50 in experiment [1], in experiment [2] and in experiment [3] were 0.037 nM, greater than 10000 nM and 4.85 nM, respectively. Further, the “Selectivity fold (TYK2/JAK2)” value in experiment [2] was greater than 2061 fold.

As to `CC(=O)Nc1cc(Nc2nc(S(C)(=O)=O)ccc2OC(F)F)c(-c2ccn(C)n2)cn1` [Example J63, N-(4-((3-(difluoromethoxy)-6-(methylsulfonyl)pyridin-2-yl)amino)-5-(1-methyl-1H-pyrazol-3-yl)pyridin-2-yl)acetamide], the IC50 in experiment [1] was 0.018 nM; in experiment [2] it was greater than 10000 nM; in experiment [3], 0.462 nM. Further, the “Selectivity fold (TYK2/JAK2)” value in experiment [2] is greater than 21645 fold.

As for `CC(=O)Nc1cc(Nc2cccc(S(C)(=O)=O)n2)c(-c2ccn(C3CC3)n2)cn1` [Example M1, N-(5-(1-cyclopropyl-1H-pyrazol-3-yl)-4-((6-(methylsulfonyl)pyridin-2-yl)amino)pyridin-2-yl)acetamide], the IC50 in experiment [1] is 0.055 nM; in experiment [2] it was 2010 nM; in experiment [3], 0.174 nM. For the same compound, the “Selectivity fold (TYK2/JAK2)” value in experiment [2] worked out at 11551 fold.

`CC(=O)Nc1cc(Nc2cc(OC(C)C)cc(S(C)(=O)=O)n2)c(-c2ccn(C3CC3)n2)cn1` [Example M2, N-(5-(1-cyclopropyl-1H-pyrazol-3-yl)-4-((4-isopropoxy-6-(methylsulfonyl)pyridin-2-yl)amino)pyridin-2-yl)acetamide]: the IC50 was 0.032 nM in experiment [1], greater than 10000 nM in experiment [2] and 1.04 nM in experiment [3]. Besides, the “Selectivity fold (TYK2/JAK2)” value in experiment [2] was greater than 9615 fold.

On to `CC(=O)Nc1cc(Nc2cc(C)cc(S(C)(=O)=O)n2)c(-c2ccn(C3CC3)n2)cn1` [Example M3, N-(5-(1-cyclopropyl-1H-pyrazol-3-yl)-4-((4-methyl-6-(methylsulfonyl)pyridin-2-yl)amino)pyridin-2-yl)acetamide], for which the IC50 was determined as 0.031 nM in experiment [1], 8350 nM in experiment [2] and 0.526 nM in experiment [3]. For the same compound, in experiment [2], the “Selectivity fold (TYK2/JAK2)” value is 15876 fold.

For the compound `COCCOc1cc(Nc2cc(NC(C)=O)ncc2-c2ccn(C3CC3)n2)nc(S(C)(=O)=O)c1` [Example M4, N-(5-(1-cyclopropyl-1H-pyrazol-3-yl)-4-((4-(2-methoxyethoxy)-6-(methylsulfonyl)pyridin-2-yl)amino)pyridin-2-yl)acetamide], the figures for the IC50 in experiment [1], in experiment [2] and in experiment [3] were 0.026 nM, greater than 10000 nM and 0.681 nM, respectively. Also, the “Selectivity fold (TYK2/JAK2)” value in experiment [2] is recorded as greater than 14684 fold.

Consider `CCn1ccc(-c2cnc(NC(C)=O)cc2Nc2cccc(S(C)(=O)=O)n2)n1` [Example M5, N-(5-(1-ethyl-1H-pyrazol-3-yl)-4-((6-(methylsulfonyl)pyridin-2-yl)amino)pyridin-2-yl)acetamide], for which the IC50 in experiment [1] came out at 0.032 nM; in experiment [2], 1550 nM; in experiment [3], 0.189 nM. Further, the “Selectivity fold (TYK2/JAK2)” value in experiment [2] is given as 8206 fold.
